Columns and labels:
LNCaP = assay: Cytotoxicity against human LNCAP cells assessed as reduction in cell viability after 24 hrs by MTT assay; type: functional, cell-based
[1] = biological target: T1, Alpha-1A adrenergic receptor (Homo sapiens) (UniProt P35348); assay: Antagonist activity at human alpha1A adrenergic receptor expressed in Chem1 cells assessed as decrease in epinephrine-induced calcium mobilization by measuring relative fluorescence unit at 1 uM by fluoforte dye based fluorescence assay relative to epinephrine; type: functional, cell-based
T1 sequence (whole entry): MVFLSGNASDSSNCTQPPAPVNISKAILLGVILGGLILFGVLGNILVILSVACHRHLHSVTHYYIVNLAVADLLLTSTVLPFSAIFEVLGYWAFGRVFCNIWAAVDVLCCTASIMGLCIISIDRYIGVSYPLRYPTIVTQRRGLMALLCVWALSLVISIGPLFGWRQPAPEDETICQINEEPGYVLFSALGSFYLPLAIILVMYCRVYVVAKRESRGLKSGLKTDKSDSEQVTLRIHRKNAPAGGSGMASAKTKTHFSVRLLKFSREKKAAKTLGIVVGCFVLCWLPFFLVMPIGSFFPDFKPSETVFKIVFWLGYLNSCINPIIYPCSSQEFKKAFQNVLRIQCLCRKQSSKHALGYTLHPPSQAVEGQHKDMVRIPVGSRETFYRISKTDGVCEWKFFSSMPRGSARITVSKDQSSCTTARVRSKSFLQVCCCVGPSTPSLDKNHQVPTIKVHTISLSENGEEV

fold change (FC) [1] | SMILES | EC50 (LNCaP) [µM]
– | O=C(CCl)N1CCN(c2ccc([N+](=O)[O-])cc2C(F)(F)F)CC1 | 53.3
– | O=C(CN1CCN(c2ccc(C(F)(F)F)cc2[N+](=O)[O-])CC1)N1CCN(c2ccc(C(F)(F)F)cc2[N+](=O)[O-])CC1 | 48.2
– | O=C(CN1CCN(c2ncccn2)CC1)N1CCN(c2ncccn2)CC1 | 48.2
– | O=C(CCl)N1CCN(c2ccc(C(F)(F)F)cc2[N+](=O)[O-])CC1 | 41.1
– | O=C(N1CCN(c2ccc([N+](=O)[O-])cc2)CC1)N1CCN(c2ccc([N+](=O)[O-])cc2)CC1 | 72.3
– | O=C(N1CCN(c2ccccn2)CC1)N1CCN(c2ccccn2)CC1 | > 80
– | O=C(N1CCN(c2ccc([N+](=O)[O-])cc2)CC1)N1CCN(c2ccc([N+](=O)[O-])cc2C(F)(F)F)CC1 | 76.1
– | O=C(N1CCN(c2ccc([N+](=O)[O-])cc2)CC1)N1CCN(c2ccccn2)CC1 | 69.5
1.6 | CCOc1ccccc1OCCN[C@H](C)Cc1ccc(OC)c(S(N)(=O)=O)c1 | –
– | O=C(N1CCN(c2ccc([N+](=O)[O-])c(C(F)(F)F)c2)CC1)N1CCN(c2ccccn2)CC1 | 79.8
– | O=C(CN1CCN(c2ccc([N+](=O)[O-])cc2C(F)(F)F)CC1)N1CCN(c2ccc([N+](=O)[O-])cc2C(F)(F)F)CC1 | 46.6
– | COc1ccccc1N1CCN(CC(=O)N2CCN(c3ncccn3)CC2)CC1 | 47.1
– | COc1ccccc1N1CCN(CC(=O)N2CCN(c3ccccc3OC)CC2)CC1 | 52.2

— ChEMBL document CHEMBL4190178 (Medchemcomm, 2016)
